# Like-named read-outs stand apart in the source and are kept apart here.
# Molecular target: T1, IKK2 (Homo sapiens, UniProt O14920)
# T1 construct: made in house; host or cells: insect cells (baculovirus, pFastBac; SF9)
# T1 sequence (O14920 1-756): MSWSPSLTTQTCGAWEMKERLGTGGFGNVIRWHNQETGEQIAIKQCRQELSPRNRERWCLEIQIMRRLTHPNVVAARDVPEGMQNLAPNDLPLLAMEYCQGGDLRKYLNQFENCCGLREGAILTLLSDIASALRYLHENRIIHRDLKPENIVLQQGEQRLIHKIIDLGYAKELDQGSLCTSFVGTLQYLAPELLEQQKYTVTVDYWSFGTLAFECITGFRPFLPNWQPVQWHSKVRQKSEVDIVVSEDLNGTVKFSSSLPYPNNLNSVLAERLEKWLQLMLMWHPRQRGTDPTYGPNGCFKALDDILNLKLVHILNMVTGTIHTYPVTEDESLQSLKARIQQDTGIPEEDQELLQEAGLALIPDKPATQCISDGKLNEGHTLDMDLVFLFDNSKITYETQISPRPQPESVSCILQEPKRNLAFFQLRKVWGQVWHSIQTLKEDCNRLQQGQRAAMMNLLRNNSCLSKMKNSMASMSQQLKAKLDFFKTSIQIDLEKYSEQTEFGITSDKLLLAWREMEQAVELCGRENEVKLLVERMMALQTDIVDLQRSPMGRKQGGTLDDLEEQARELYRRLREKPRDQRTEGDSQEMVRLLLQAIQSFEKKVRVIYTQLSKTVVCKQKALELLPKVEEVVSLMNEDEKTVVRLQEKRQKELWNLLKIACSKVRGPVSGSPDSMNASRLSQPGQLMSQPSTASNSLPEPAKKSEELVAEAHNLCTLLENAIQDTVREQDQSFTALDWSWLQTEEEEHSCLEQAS
# Assay: IKKβ Resin Enzyme Assay (IKK2 resin)
# Format: biochemical
# Outline: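 Radiometric test: [γ-33P]ATP incorporation into a biotinylated IκBα peptide, 30 min at 25° C, pH 7.6 Hepes with MgCl2/MnCl2 and 1 μM cold ATP. Reaction is quenched with Dowex resin and the supernatant is counted. Kinase is FLAG-purified homodimeric recombinant human IKK2 from insect cells.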
# [1] = Table 3, read-out: IKK Resin IC50
# [2] = Table 2, read-out: IKK Resin IC50
# [3] = Table 18, read-out: IKK2 Resin IC50
# [4] = Table 4, read-out: IKK2 Resin IC50
# [5] = Table 14, read-out: IKK2 Resin IC50
compound,measurement,setting,value
"CN1CCN(c2ccc(Cl)c(C(=O)Nc3ccc4c(c3)-c3c(c(C(N)=O)nn3-c3ccc(F)cc3)CC4)c2)CC1 [Example 258, 8-{[2-chloro-5-(4-methylpiperazin-1-yI)benzoyl]amino}-1-(4-fluorophenyl)-4,5-dihydro-1H-benzo[g]indazole-3-carboxamide]",IC50,"Table 7, read-out: IKK2 Resin IC50",≤ 1000 nM
"CS(=O)(=O)c1ccc(-n2nc(C(N)=O)c3c2-c2cc(NC(=O)c4ccc(C(F)(F)F)cc4[N+](=O)[O-])ccc2CC3)cc1 [Example 152, 1-[4-(methylsulfonyl)phenyl]-8-{[2-nitro-4-(trifluoromethyl)benzoyl]amino}-4,5-dihydro-1H-benzo[g]indazole-3-carboxamide]",IC50,[1],≤ 1000 nM
"CN1CCN(c2ccc(Cl)c(C(=O)Nc3ccc4c(c3)-c3c(c(C(N)=O)nn3-c3ccc(S(C)(=O)=O)cc3)CC4)c2)CC1 [Example 126, 8-{[2-chloro-5-(4-methylpiperazin-1-yl)benzoyl]amino}-1-[4-(methylsulfonyl)phenyl]-4,5-dihydro-1H-benzo[g]indazole-3-carboxamide]",IC50,[2],≤ 1000 nM
"COc1ccc(C(=O)Nc2ccc3c(c2)-c2c(c(C(N)=O)nn2-c2cccc(O)c2)CC3)c(Cl)c1 [Example 283, 8-[(2-chloro-4-methoxybenzoyl)ammo]-1-(3-hydroxyphenyl)-4,5-dihydro-1H-benzo[g]indazole-3-carboxamide]",IC50,"Table 10, read-out: IKK2 Resin IC50",≤ 1000 nM
"CCS(=O)(=O)c1ccc(-n2nc(C(N)=O)c3c2-c2cc(NC(=O)c4cc(NC(=O)OC(C)(C)C)ccc4Cl)ccc2CC3)cc1 [Example 397, tert-butyl 3-[({3-(aminocarbonyl)-1-[4-(ethylsulfonyl)phenyl]-4,5-dihydro-1H-benzo[g]indazol-8-yl}amino)carbonyl]-4-chlorophenylcarbamate]",IC50,[3],≤ 1000 nM
"CS(=O)(=O)c1ccc(Cl)c(C(=O)Nc2ccc3c(c2)-c2c(c(C(N)=O)nn2-c2ccc4c(c2)OCO4)CC3)c1 [Example 185, 1-(1,3-benzodioxol-5-yl)-8-{[2-chloro-5-(methylsulfonyl)benzoyl]amino}-4,5-diliydro-1H-benzo[g]indazole-3-carboxamide]",IC50,[4],≤ 1000 nM
"CS(=O)(=O)c1ccc(-n2nc(C(N)=O)c3c2-c2cc(NC(=O)c4ccc([N+](=O)[O-])cc4Cl)ccc2CC3)cc1 [Example 146, 8-[(2-chloro-4-nitrobenzoyl)amino]-1-[4-(methylsulfonyl)phenyl]-4,5-dihydro-1H-benzo[g]indazole-3-carboxamide]",IC50,[1],≤ 1000 nM
"CS(=O)(=O)c1ccc(-n2nc(C(N)=O)c3c2-c2cc(NC(=O)c4ccccc4)ccc2CC3)cc1 [Example 140, 8-(benzoylamino)-1-[4-(methylsulfonyl)phenyl]-4,5-dihydro-1H-benzo[g]indazole-3-carboxamide]",IC50,[1],≤ 1000 nM
"CS(=O)(=O)c1ccc(-n2nc(C(N)=O)c3c2-c2cc(NC(=O)c4cccc([N+](=O)[O-])c4Cl)ccc2CC3)cc1 [Example 135, 8-[(2-chloro-3-nitrobenzoyl)amino]-1-[4-(methylsulfonyl)phenyl]-4,5-dihydro-1H-benzo[g]indazole-3-carboxamide]",IC50,[1],≤ 1000 nM
"CC1(C)OCC(COc2cccc(-n3nc(C(N)=O)c4c3-c3cc(NC(=O)c5ccncc5Cl)ccc3CC4)c2)O1 (stereo not shown) [Example 275, 8-[(3-chloroisonicotinoyl)amino]-1-{3-[(2,2-dimethyl-1,3-dioxolan-4-yl)methoxy]phenyl}-4,5-dihydro-1H-benzo[g]indazole-3-carboxamide]",IC50,"Table 9, read-out: IKK2 Resin IC50",1000 to 10000 nM
"CCS(=O)(=O)c1ccc(-n2nc(C(N)=O)c3c2-c2cc(NC(=O)c4cc(NC(C)=O)ccc4Cl)ccc2CC3)cc1 [Example 392, 8-{[5-(acetylamino)-2-chlorobenzoyl]amino}-1-[4-(ethylsulfonyl)phenyl]-4,5-dihydro-1H-benzo[g]indazole-3-carboxamide]",IC50,[3],≤ 1000 nM
"NC(=O)c1nn(-c2ccc(F)cc2F)c2c1CCc1ccc(NC(=O)c3cccnc3Cl)cc1-2 [Example 366, 8-{[(2-chloropyridin-3-yl)carbonyl]amino}-1-(2,4-difluorophenyl)-4,5-dihydro-1H-benzo[g]indazole-3-carboxamide]",IC50,[5],≤ 1000 nM
"CN(C)c1ccc(Cl)c(C(=O)Nc2ccc3c(c2)-c2c(c(C(N)=O)nn2-c2ccc4c(c2)OCO4)CC3)c1 [Example 183, 1-(1,3-benzodioxol-5-yl)-8-{[2-chloro-5-(dimethylamino)benzoyl]amino}-4,5-dihydro-1H-benzo[g]indazole-3-carboxamide]",IC50,[4],≤ 1000 nM
"NC(=O)c1nn(-c2ccc(C#CCCCO)cc2)c2c1CCc1ccc(NC(=O)c3cccnc3Cl)cc1-2 [Example 387, 8-{[(2-chloropyridin-3-yl)carbonyl]amino}-1-[4-(5-hydroxypent-1-ynyl)phenyl]-4,5-dihydro-1H-benzo[g]indazole-3-carboxamide]",IC50,"Table 17, read-out: IKK2 Resin IC50",≤ 1000 nM
"NC(=O)c1nn(-c2cc(F)cc(F)c2)c2c1CCc1ccc(NC(=O)c3cccnc3Cl)cc1-2 [Example 347, 8-{[(2-chloropyridin-3-yl)carbonyl]amino}-1-(3,5-difluorophenyl)-4,5-dihydro-1H-benzo[g]indazole-3-carboxamide]",IC50,[5],≤ 1000 nM
"NC(=O)c1nn(-c2ccc3c(c2)OCO3)c2c1CCc1ccc(NC(=O)c3ccc([N+](=O)[O-])cc3Cl)cc1-2 [Example 184, 1-(1,3-benzodiaxol-5-yl)-8-[(2-chloro-4-nitrobenzoyl)amino]-4,5-dihydro-1H-benzo[g]indazole-3-carboxamide]",IC50,[4],≤ 1000 nM
"NC(=O)c1nn(-c2ccc(/C=C\CO)cc2)c2c1CCc1ccc(NC(=O)c3cccnc3Cl)cc1-2 [Example 300, 8-{[(2-chloropyridin-3-yl)carbonyl]amino}-1-{4-[(1Z)-3-hydroxyprop-1-enyl]phenyl}-4,5-dihydro-1H-benzo[g]indazole-3-carboxamide]",IC50,"Table 11, read-out: IKK2 Resin IC50",≤ 1000 nM
"NC(=O)c1nn(-c2ccc3c(c2)OCO3)c2c1CCc1ccc(NC(=O)c3cc(N)ccc3Cl)cc1-2 [Example 172, 8-[(5-amino-2-chlorobenzoyl)amino]-1-(1,3-benzodioxol-5-yl)-4,5-dihydro-1H-benzo[g]indazole-3-carboxamide]",IC50,[4],≤ 1000 nM
"CS(=O)(=O)c1ccc(-n2nc(C(N)=O)c3c2-c2cc(NC(=O)c4cccnc4Cl)ccc2CC3)cc1 [Example 98, 8-{[(2-chloropyridin-3-yl)carbonyl]amino}-1-[4-(methylsulfonyl)phenyl]-4,5-dihydro-1H-benzo[g]indazole-3-carboxamide]",IC50,[2],≤ 1000 nM
"Cc1c(O)cccc1C(=O)Nc1ccc2c(c1)-c1c(c(C(N)=O)nn1-c1ccc3c(c1)OCO3)CC2 [Example 198, 1-(1,3-benzodioxol-5-yl)-8-[(3-hydroxy-2-methylbenzoyl)amino]-4,5-dihydro-1H-benzo[g]indazole-3-carboxamide]",IC50,[4],≤ 1000 nM
"NC(=O)c1nn(-c2ccc3c(c2)OCO3)c2c1CCc1ccc(NC(=O)c3cc(Cl)ccc3Cl)cc1-2 [Example 189, 1-(1,3-benzodioxol-5-yl)-8-[(2,5-dichlorobenzoyl)amino]-4,5-dihydro-1H-benzo[g]indazole-3-carboxamide]",IC50,[4],≤ 1000 nM
"CS(=O)(=O)c1ccc(-n2nc(C(N)=O)c3c2-c2cc(NC(=O)c4cc(Cl)ccc4Cl)ccc2CC3)cc1 [Example 108, 8-[(2,5-dichlorobenzoyl)amino]-1-[4-(methylsulfonyl)phenyl]-4,5-dihydro-1H-benzo[g]indazole-3-carboxamide]",IC50,[2],≤ 1000 nM

# Source: patent publication US7186743B2, “Substituted pyrazolyl compounds for the treatment of inflammation” (Pharmacia Corporation, priority 2001, dated 2007)
